# Reference: US20120046276A1, “Tuberculosis treatment using pleuromutilin derivatives” (priority 2002, published 2012)
# Values joined by “and” are separate entries in the source; they are usually repeats but may differ in a detail not shown here. Identical values can stand only once. Like-named read-outs stand apart in the source and are kept apart here.
# What was measured:
# Assay type in all cases: cell-based
# [1] = test system: Mycobacterium tuberculosis strain 6; test: Agar Dilution Test (MIC), strain 6 (Isoniacid S, Rifampicin S, Streptomycin S)
# [2] = test system: Mycobacterium tuberculosis strain 4; test: Agar Dilution Test (MIC), strain 4 (Isoniacid R, Rifampicin R, Streptomycin R)
# [3] = test system: Mycobacterium tuberculosis strain 7; test: Agar Dilution Test (MIC), strain 7 (Isoniacid R, Rifampicin S, Streptomycin R)
# [4] = test system: Mycobacterium tuberculosis strain 2; test: Agar Dilution Test (MIC), strain 2 (Isoniacid S, Rifampicin S, Streptomycin S)
# [5] = test system: Mycobacterium tuberculosis strain 1; test: Agar Dilution Test (MIC), strain 1 (Isoniacid S, Rifampicin S, Streptomycin S); settings: read-out: MIC against Mycobacterium tuberculosis of strain number 1
# [6] = test system: Mycobacterium tuberculosis strain 3; test: Agar Dilution Test (MIC), strain 3 (Isoniacid R, Rifampicin R, Streptomycin S)
# [7] = test system: Mycobacterium tuberculosis strain 11; test: Agar Dilution Test (MIC), strain 11 (Isoniacid S, Rifampicin S, Streptomycin S)
# [8] = test system: Mycobacterium tuberculosis strain 8; test: Agar Dilution Test (MIC), strain 8 (Isoniacid S, Rifampicin R, Streptomycin S)
# [9] = test system: Mycobacterium tuberculosis strain 5; test: Agar Dilution Test (MIC), strain 5 (Isoniacid R, Rifampicin R, Streptomycin S)
# [10] = test system: Mycobacterium tuberculosis strain 14; test: Agar Dilution Test (MIC), strain 14 (Isoniacid S, Rifampicin S, Streptomycin S)
# [11] = test system: Mycobacterium tuberculosis strain 13; test: Agar Dilution Test (MIC), strain 13 (Isoniacid S, Rifampicin S, Streptomycin S)
# [12] = test system: Mycobacterium tuberculosis strain 10; test: Agar Dilution Test (MIC), strain 10 (Isoniacid S, Rifampicin S, Streptomycin S)
# [13] = test system: Mycobacterium tuberculosis strain 12; test: Agar Dilution Test (MIC), strain 12 (Isoniacid S, Rifampicin S, Streptomycin S)
# [14] = test system: Mycobacterium tuberculosis strain 15 (labor strain 137 kV); test: Agar Dilution Test (MIC), strain 15 = labor strain 137 kV (Isoniacid S, Rifampicin S, Streptomycin S)
# [15] = Mycobacterium tuberculosis, 1, 504 h
# [16] = Mycobacterium tuberculosis, 1, 672 h
# [17] = Mycobacterium tuberculosis, 1, 840 h
# [18] = TABLE C; week 4*) tested after 31 days
# [19] = TABLE D; week 4*) tested after 31 days
# [20] = Mycobacterium tuberculosis, 1, 336 h
# [21] = Mycobacterium tuberculosis, 1, 168 h
SMILES,MIC against Mycobacterium tuberculosis of strain number 6 [1],MIC against Mycobacterium tuberculosis of strain number 4 [2],MIC against Mycobacterium tuberculosis of strain number 7 [3],MIC against Mycobacterium tuberculosis of strain number 2 [4],"MIC [5, 15] [µg/mL]","MIC [5, 16] [µg/mL]","MIC [5, 17] [µg/mL]",MIC against Mycobacterium tuberculosis of strain number 3 [6] [µg/mL],MIC against Mycobacterium tuberculosis of strain number 12 [13],MIC against Mycobacterium tuberculosis of strain number 15 [14],"MIC [5, 21] [µg/mL]",also measured
"C=C[C@]1(C)C[C@@H](OC(=O)CSCCN(CC)CC)[C@]2(C)C(C)CC[C@]3(CCC(=O)C32)[C@@H](C)[C@@H]1O (stereo partly drawn) [TC-1, 14-Desoxy-14[(2-diethylaminoethyl)mercaptoacetoxy]mutilin]",10 µg/mL,5 µg/mL and 10 µg/mL,10 µg/mL and 20 µg/mL,5 µg/mL,5,5,5,5,,,,
"C=C[C@]1(C)C[C@@H](OC(=O)CSC(C)(C)CNC(=O)[C@H](N)C(C)C)[C@]2(C)[C@H](C)CC[C@]3(CCC(=O)[C@H]32)[C@@H](C)[C@@H]1O [TC-2, Valnemulin]",5 µg/mL and 4 µg/mL,5 µg/mL and 8 µg/mL,,,0.5,0.5,0.5,,4 µg/mL,2 µg/mL,,"MIC against Mycobacterium tuberculosis of strain number 6 [1, 18]: 4 µg/mL; MIC against Mycobacterium tuberculosis of strain number 11 [7]: 2 µg/mL; MIC against Mycobacterium tuberculosis of strain number 11 [7, 19]: 4 µg/mL; MIC against Mycobacterium tuberculosis of strain number 4 [2, 18]: 8 µg/mL; MIC against Mycobacterium tuberculosis of strain number 7 [3, 18]: 8 µg/mL; MIC against Mycobacterium tuberculosis of strain number 2 [4, 18]: 4 µg/mL; MIC against Mycobacterium tuberculosis of strain number 8 [8]: 4 µg/mL; MIC against Mycobacterium tuberculosis of strain number 8 [8, 18]: 8 µg/mL; MIC against Mycobacterium tuberculosis of strain number 5 [9]: 2 µg/mL; MIC against Mycobacterium tuberculosis of strain number 5 [9, 18]: 4 µg/mL; MIC ([5]; Mycobacterium tuberculosis, 1, 744 h, TABLE C; week 4*) tested after 31 days): 0.5 µg/mL; MIC against Mycobacterium tuberculosis of strain number 14 [10]: 4 µg/mL; MIC against Mycobacterium tuberculosis of strain number 14 [10, 19]: 4 µg/mL; MIC against Mycobacterium tuberculosis of strain number 3 [6, 18]: 2 µg/mL; MIC against Mycobacterium tuberculosis of strain number 13 [11]: 4 µg/mL; MIC against Mycobacterium tuberculosis of strain number 13 [11, 19]: 8 µg/mL; MIC against Mycobacterium tuberculosis of strain number 10 [12]: 4 µg/mL; MIC against Mycobacterium tuberculosis of strain number 10 [12, 19]: 4 µg/mL; MIC against Mycobacterium tuberculosis of strain number 12 [13, 19]: 4 µg/mL; MIC against Mycobacterium tuberculosis of strain number 15 [14, 19]: 4 µg/mL"
C=C[C@]1(C)C[C@@H](OC(=O)CSc2cccc(NC(=O)C3CCCCN3)c2)[C@]2(C)C(C)CCC3(CCC(=O)C32)[C@@H](C)C1O (stereo partly drawn) [TC-3],5 µg/mL and 10 µg/mL,,20 µg/mL,5 µg/mL,1,1,1,5,,,,
C=C[C@]1(C)C[C@@H](OC(=O)CSC2CCCN(C(=O)C(N)C(C)C)C2)[C@]2(C)C(C)CCC3(CCC(=O)C32)[C@@H](C)C1O (stereo partly drawn) [TC-4],5 µg/mL and 4 µg/mL,,,5 µg/mL and 4 µg/mL,0.5,1,1,,4 µg/mL and 2 µg/mL,4 µg/mL and 2 µg/mL,,MIC against Mycobacterium tuberculosis of strain number 11 [7]: 2 µg/mL; MIC against Mycobacterium tuberculosis of strain number 8 [8]: 4 µg/mL and 2 µg/mL; MIC against Mycobacterium tuberculosis of strain number 5 [9]: 2 µg/mL; MIC against Mycobacterium tuberculosis of strain number 14 [10]: 4 µg/mL; MIC against Mycobacterium tuberculosis of strain number 13 [11]: 4 µg/mL and 2 µg/mL; MIC against Mycobacterium tuberculosis of strain number 10 [12]: 4 µg/mL and 2 µg/mL
C=C[C@]1(C)C[C@@H](OC(=O)CSc2cccc(NC(=O)C(N)CCCNC(=N)N)c2)[C@]2(C)C(C)CCC3(CCC(=O)C32)[C@@H](C)C1O (stereo partly drawn) [TC-5],5 µg/mL and 10 µg/mL,5 µg/mL and 10 µg/mL,5 µg/mL and 10 µg/mL,5 µg/mL,1,5,5,5,,,,
C=C[C@]1(C)C[C@@H](OC(=O)CSc2cccc(NC(=N)N)c2)[C@]2(C)C(C)CCC3(CCC(=O)C32)[C@@H](C)C1O (stereo partly drawn) [TC-6],,,,,,,,,1 µg/mL,0.5 µg/mL,,"MIC [5, 20]: 1 µg/mL"
C=C[C@]1(C)C[C@@H](OC(=O)CSC(C)(C)C(N)C(=O)NC)[C@]2(C)C(C)CCC3(CCC(=O)C32)[C@@H](C)C1O (stereo partly drawn) [TC-7],,,,,,,,,32 µg/mL,32 µg/mL,2,
C=C[C@]1(C)C[C@@H](OC(=O)CSC(C)(C)C(N)C(=O)N2CCN(C)CC2)[C@]2(C)C(C)CCC3(CCC(=O)C32)[C@@H](C)C1O (stereo partly drawn) [TC-8],,,,,,,,,32 µg/mL,32 µg/mL,2,
C=C[C@]1(C)C[C@@H](OC(=O)CSC2CCCC(=NO)C2)[C@]2(C)C(C)CCC3(CCC(=O)C32)[C@@H](C)C1O (stereo partly drawn) [TC-9],,,,,,,,,32 µg/mL,32 µg/mL,8,
C=C[C@]1(C)C[C@@H](OC(=O)CSC2CCNCC2O)[C@]2(C)C(C)CCC3(CCC(=O)C32)[C@@H](C)C1O (stereo partly drawn) [TC-10],,,,,,,,,16 µg/mL,4 µg/mL,,"MIC [5, 20]: 2 µg/mL"
